Experimental data as given in US7981926B2, “Fluorotaxoids” (Research Foundation of State University of New York, priority 2005, dated 2011).
Read-outs that look alike come from different tables or passages of the source.

Assays:
[1] = test system: MCF7-R (mammary carcinoma cells 250-fold resistant to paclitaxel); assay: Tumor growth inhibitory activity (cytotoxicity), SRB method of Skehan et al, MCF7-R; type: cell-based, human; details: for IC50: Homo sapiens, MCF7R, read-out: IC50 MCF7-R (breast); for R/S (resistance factor): ratio of cytotoxicity against drug-resistant MCF7-R (R) to drug-sensitive MCF7 (S)
Source text: (§1) The results were obtained according to the methods of Skehan et al (See Skehan et al., J. Nat. Cancer Inst., 82, 1107 (1990)), as more fully described in the Examples. The resistance factor (R/S) shown in the table is a measure of the degree of resistance of a cell line against a taxoid compound. The resistance factor is a ratio of the cytoxicity of a taxoid compound against a drug-resistant cell line (R) as compared to its cytoxicity against a drug-sensitive cell line (S).
(§2) In the tables, lower numbers indicate higher potency (or greater activity). Paclitaxel was used as the standard for comparison. The data represent the mean values of at least three separate experiments.
(§3) Assessment of cell growth inhibition was determined according to the methods of Skehan et al (See Skehan et al., J. Nat. Cancer Inst., 82, 1107 (1990)). Briefly, cells were plated between 400 and 1200 cells/well in 96 well plates and incubated at 37° C. for 15-18 h prior to drug addition to allow attachment of cells. Compounds tested were solubilized in 100% DMSO and further diluted in RPMI-1640 containing 10 mM HEPES. Each cell line was treated with 10 concentrations of compounds (5 log range). After a 72 h incubation, 100 μL of ice-cold 50% TCA was added to each well and incubated for 1 h at 4° C. Plates were then washed 5 times with tap water to remove TCA, low-molecular-weight metabolites and serum proteins. Sulforhodamine B (SRB) (0.4%, 50 μL) was added to each well. Following a 5 minute incubation at room temperature, plates were rinsed 5 times with 0.1% acetic acid and air dried. Bound dye was solubilized with 10 mM Tris Base (pH 10.5) for 5 min on a gyratory shaker. Optical density was measured at 570 nm.
(§4) Data were fit with the Sigmoid-Emax concentration-effect model with non-linear regression, weighted by the reciprocal of the square of the predicted response (see Holford, N. H. G.; Scheiner, L. B., “Understanding the dose-effect relationship: Clinical applications of pharmaco-kinetic-pharmacodynamic models,” Clin. Pharmacokin., 6, 429-453 (1981)). The fitting software was developed by the Roswell Park Cancer Institute with Microsoft FORTRAN, and uses the Marquardt algorithm (see Marquardt, D. W., “An algorithm for least squares estimation of nonlinear parameters,” J. Soc. Ind. Appl. Math., 11, 431-441 (1963)) as adopted by Nash for the non-linear regression (see Nash, J. C., “Compact numerical method for computers: Linear algebra and function minimization,” John Wiley & Sons, New York, 1979).

MCF7 (mammary carcinoma) = assay: Tumor growth inhibitory activity (cytotoxicity), SRB method of Skehan et al, MCF7; type: cell-based, human; details: Homo sapiens, read-out: IC50 MCF7 (breast)
Source text: as §1, §2, §3, §4

[2] = drug-resistant cell line, 72 h drug exposure, SRB, mean of at least three separate experiments
[3] = MCF7, 72 h drug exposure, SRB, mean of at least three separate experiments

Compound | IC50 [1, 2] [nM] | R/S (resistance factor) [1] | IC50 (MCF7 (mammary carcinoma); [3]) [nM] | melting point [°C] | IC50 ([1]; 72 h) [nM] | IC50 (MCF7 (mammary carcinoma); MCF7, 72 h) [nM]
CC(=O)O[C@H]1C(=O)[C@@]2(C)C([C@H](OC(=O)c3ccccc3)[C@]3(O)C[C@H](OC(=O)[C@H](O)[C@H](C=C(F)F)NC(=O)OC(C)(C)C)C(C)=C1C3(C)C)[C@]1(OC(C)=O)CO[C@@H]1C[C@@H]2O (stereo partly shown) [SB-T-12851, 10-Acetyl-3′-dephenyl-3′-(2,2-difluorovinyl)docetaxel] | 0.95 | 9.6 | 0.099 | 155 to 160 | – | –
CCC(=O)O[C@H]1C(=O)[C@@]2(C)C([C@H](OC(=O)c3ccccc3)[C@]3(O)C[C@H](OC(=O)[C@H](O)[C@H](C=C(F)F)NC(=O)OC(C)(C)C)C(C)=C1C3(C)C)[C@]1(OC(C)=O)CO[C@@H]1C[C@@H]2O (stereo partly shown) [SB-T-12853, 3′-Dephenyl-3′-(2,2-difluorovinyl)-10-propanoyl-docetaxel] | 1.2 | 10 | 0.12 | 175 to 181 | – | –
CC(=O)O[C@@]12CO[C@@H]1C[C@H](O)[C@@]1(C)C(=O)[C@H](OC(=O)N(C)C)C3=C(C)[C@@H](OC(=O)[C@H](O)[C@H](C=C(F)F)NC(=O)OC(C)(C)C)C[C@@](O)([C@@H](OC(=O)c4ccccc4)C12)C3(C)C (stereo partly shown) [SB-T-12854, 3′-Dephenyl-3′-(2,2-difluorovinyl)-10-dimethylcarbamoyldocetaxel] | – | 33 | – | 166 to 170 | 4.27 | 0.13
CC(=O)O[C@@]12CO[C@@H]1C[C@H](O)[C@@]1(C)C(=O)[C@H](OC(=O)N(C)C)C3=C(C)[C@@H](OC(=O)[C@H](O)[C@H](C=C(F)F)NC(=O)OC(C)(C)C)C[C@@](O)([C@@H](OC(=O)c4cccc(F)c4)C12)C3(C)C (stereo partly shown) [SB-T-12854-2, 3′-Dephenyl-3′-(2,2-difluorovinyl)-2-debenzoyl-2-(3-fluorobenzoyl)-10-dimethylcarbamoyldocetaxel] | – | 9.4 | – | – | 2.25 | 0.17
CC(=O)O[C@@]12CO[C@@H]1C[C@H](O)[C@@]1(C)C(=O)[C@H](OC(=O)N(C)C)C3=C(C)[C@@H](OC(=O)[C@H](O)[C@H](C=C(F)F)NC(=O)OC(C)(C)C)C[C@@](O)([C@@H](OC(=O)c4cccc(N=[N+]=[N-])c4)C12)C3(C)C (stereo partly shown) [SB-T-12854-3, 3′-Dephenyl-3′-(2,2-difluorovinyl)-2-debenzoyl-2-(3-azidobenzoyl)-10-dimethylcarbamoyldocetaxel] | – | 3.7 | – | – | 0.45 | 0.13
CC(=O)O[C@@]12CO[C@@H]1C[C@H](O)[C@@]1(C)C(=O)[C@H](OC(=O)N(C)C)C3=C(C)[C@@H](OC(=O)[C@H](O)[C@H](C=C(F)F)NC(=O)OC(C)(C)C)C[C@@](O)([C@@H](OC(=O)c4cccc(Cl)c4)C12)C3(C)C (stereo partly shown) [SB-T-12854-4, 3′-Dephenyl-3′-(2,2-difluorovinyl)-2-debenzoyl-2-(3-chlorobenzoyl)-10-dimethylcarbamoyldocetaxel] | – | 2.8 | – | – | 2.6 | 0.93
COC(=O)O[C@H]1C(=O)[C@@]2(C)C([C@H](OC(=O)c3ccccc3)[C@]3(O)C[C@H](OC(=O)[C@H](O)[C@H](C=C(F)F)NC(=O)OC(C)(C)C)C(C)=C1C3(C)C)[C@]1(OC(C)=O)CO[C@@H]1C[C@@H]2O (stereo partly shown) [SB-T-12855, 3′-Dephenyl-3′-(2,2-difluorovinyl)-10-methoxycarbonyldocetaxel] | 1.29 | 9.2 | 0.14 | 144 to 148 | – | –
COC(=O)O[C@H]1C(=O)[C@@]2(C)C([C@H](OC(=O)c3cccc(OC)c3)[C@]3(O)C[C@H](OC(=O)[C@H](O)[C@H](C=C(F)F)NC(=O)OC(C)(C)C)C(C)=C1C3(C)C)[C@]1(OC(C)=O)CO[C@@H]1C[C@@H]2O (stereo partly shown) [SB-T-12855-1, 3′-Dephenyl-3′-(2,2-difluorovinyl)-2-debenzoyl-2-(3-methoxybenzoyl)-10-methoxycarbonyldocetaxel] | 0.5 | 6.4 | 0.078 | – | – | –
COC(=O)O[C@H]1C(=O)[C@@]2(C)C([C@H](OC(=O)c3cccc(F)c3)[C@]3(O)C[C@H](OC(=O)[C@H](O)[C@H](C=C(F)F)NC(=O)OC(C)(C)C)C(C)=C1C3(C)C)[C@]1(OC(C)=O)CO[C@@H]1C[C@@H]2O (stereo partly shown) [SB-T-12855-2, 3′-Dephenyl-3′-(2,2-difluorovinyl)-2-debenzoyl-2-(3-fluorobenzoyl)-10-methoxycarbonyldocetaxel] | 1.85 | 11 | 0.12 | – | – | –
COC(=O)O[C@H]1C(=O)[C@@]2(C)C([C@H](OC(=O)c3cccc(N=[N+]=[N-])c3)[C@]3(O)C[C@H](OC(=O)[C@H](O)[C@H](C=C(F)F)NC(=O)OC(C)(C)C)C(C)=C1C3(C)C)[C@]1(OC(C)=O)CO[C@@H]1C[C@@H]2O (stereo partly shown) [SB-T-12855-3, 3′-Dephenyl-3′-(2,2-difluorovinyl)-2-debenzoyl-2-(3-azidobenzoyl)-10-methoxycarbonyldocetaxel] | 0.4 | 5.3 | 0.076 | – | – | –
COC(=O)O[C@H]1C(=O)[C@@]2(C)C([C@H](OC(=O)c3cccc(Cl)c3)[C@]3(O)C[C@H](OC(=O)[C@H](O)[C@H](C=C(F)F)NC(=O)OC(C)(C)C)C(C)=C1C3(C)C)[C@]1(OC(C)=O)CO[C@@H]1C[C@@H]2O (stereo partly shown) [SB-T-12855-4, 3′-Dephenyl-3′-(2,2-difluorovinyl)-2-debenzoyl-2-(3-chlorobenzoyl)-10-methoxycarbonyldocetaxel] | 1.15 | 12 | 0.099 | – | – | –
